The target in the assay is T1, human glioblastoma A172 cells, naturally expressing hTDO2 (Homo sapiens, UniProt P48775).
T1 construct: human glioblastoma A172 cells, naturally expressing hTDO2; endogenous in cells; host or cells: human glioblastoma A172 cells (ATCC CRL-1620)
Briefly: Cellular assay for TDO2 activity, A172 cells. The format is cell-based. The conditions noted are these: overnight incubation, kynurenine in supernatant. How it is done: The compounds of formula I inhibit the activity of human TDO2 in cells that constitutively express TDO2, such as A172 cells. A172 is a cell line derived from human brain glioblastoma cells. The cells are available from the American Type Culture Collection (ATCC®) as CRL-1620™
The assay (adapted from Pilotte L et al., Proc Natl Acad Sci USA, 2012, 109(7), 2497-502) was performed in 96-well flat bottom plates seeded with human glioblastoma A172 cells, naturally expressing hTDO2 (prepared as described in Tilman et al., Mol Cancer, 2007, 17(6), 80), at a concentration of 1.25×10^4 cells/well in a final volume of 200 μL. To determine TDO, the cells were incubated overnight at 37° C. at 5% CO2 in IMDM (Invitrogen) supplemented with 2% FBS and 2% penicillin/streptomycin in the presence of the compounds of the present invention, at different concentrations.
The plates were then centrifuged 5 min at 1000 rpm, and 100 μL of the supernatant were collected in a conical plate, 30 uL of TCA 30% were added and a further centrifugated at 3000×g for 10 minutes. 100 μL of the supernatant were collected in a flat bottomed plate and 100 μL of 2% (w/v) 4-(dimethylamino)-benzaldehyde in acetic acid and incubated for 5 min at room temperature. Kynurenine concentrations were determined by measuring the absorbance at 480 nm. A standard curve was made with pure kynurenine. The TDO activity was measured as described above using ten serial concentrations of the compounds of the present invention. Data were fitted using the Prism™ software (GraphPad Software, Inc.) using standard parameters.

Structures are written as SMILES.

Data on 29 compounds can be found in US20150266857A1, “NOVEL 3-INDOL SUBSTITUTED DERIVATIVES, PHARMACEUTICAL COMPOSITIONS AND METHODS FOR USE” (iTeos Therapeutics, priority 2014, published 2015).

T1 sequence (P48775 whole entry): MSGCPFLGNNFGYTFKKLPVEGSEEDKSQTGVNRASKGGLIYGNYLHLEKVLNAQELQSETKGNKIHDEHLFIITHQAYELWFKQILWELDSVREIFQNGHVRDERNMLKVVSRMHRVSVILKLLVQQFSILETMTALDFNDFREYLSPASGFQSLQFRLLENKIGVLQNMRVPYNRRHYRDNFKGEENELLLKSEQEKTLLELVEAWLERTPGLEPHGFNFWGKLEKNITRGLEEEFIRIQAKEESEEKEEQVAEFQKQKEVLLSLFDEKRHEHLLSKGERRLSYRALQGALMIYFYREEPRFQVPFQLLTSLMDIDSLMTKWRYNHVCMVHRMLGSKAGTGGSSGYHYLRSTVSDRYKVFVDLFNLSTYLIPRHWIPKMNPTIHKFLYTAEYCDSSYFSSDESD

By IC50 is commonly meant the point on the concentration scale where inhibition reaches its midpoint. A high value points to weaker potency. `Fc1ccc2c(-c3ccc4nc(S)oc4c3)c[nH]c2c1` [Compound 112, 6-(6-fluoro-1H-indol-3-yl)benzo[d]oxazole-2-thiol] showed an IC50 of 979 nM.
The same measure for `Fc1ccc2c(-c3ccc4nc(CC5CCNCC5)oc4c3)c[nH]c2c1` [Compound 113, 6-(6-fluoro-1H-indol-3-yl)-2-(piperidin-4-ylmethyl)benzo[d]oxazole]: 284 nM.
As for `CS(=O)(=O)NCc1nc2ccc(-c3c[nH]c4ccccc34)cc2o1` [Compound 114, N-((6-(1H-indol-3-yl)benzo[d]oxazol-2-yl)methyl)methanesulfonamide], the figure is 478 nM.
As for `CN1CCC[C@H]1C(=O)NCc1nc2ccc(-c3c[nH]c4cc(F)ccc34)cc2o1` [Compound 115, (S)—N-((6-(6-fluoro-1H-indol-3-yl)benzo[d]oxazol-2-yl)methyl)-1-methylpyrrolidine-2-carboxamide], the figure is 349 nM.
For `COc1nc2ccc(-c3c[nH]c4cc(F)ccc34)cc2o1` [Compound 116, 6-(6-fluoro-1H-indol-3-yl)-2-methoxybenzo[d]oxazole], the IC50 came out at 372 nM.
The same measure for `NS(=O)(=O)NCc1nc2ccc(-c3c[nH]c4cc(F)ccc34)cc2o1` [Compound 117, Amino{[6-(6-fluoroindol-3-yl)benzoxazol-2-yl]methyl}sulfonamide]: 278 nM; for `c1ccc2c(-c3ccc4ocnc4c3)c[nH]c2c1` [Compound 118, 5-(1H-indol-3-yl)benzo[d]oxazole]: 1530 nM.
The same measure for `CS(=O)(=O)N1CCC(Cc2nc3ccc(-c4c[nH]c5cc(F)ccc45)cc3o2)CC1` [Compound 119, 6-(6-fluoro-1H-indol-3-yl)-2-((1-(methylsulfonyl)piperidin-4-yl)methyl)benzo[d]oxazole]: 1020 nM; for `CS(=O)(=O)N1CCN(CCc2nc3ccc(-c4c[nH]c5cc(F)ccc45)cc3o2)CC1` [Compound 120, 6-(6-fluoro-1H-indol-3-yl)-2-(2-(4-(methylsulfonyl)piperazin-1-yl)ethyl)benzo[d]oxazole]: 443 nM.
In the case of `Clc1ccc2[nH]cc(-c3ccc4ocnc4c3)c2c1` [Compound 121, 5-(5-chloro-1H-indol-3-yl)benzo[d]oxazole], the 50% inhibitory concentration (IC50) worked out at 1770 nM.
As for `CN1CCC(Cc2nc3ccc(-c4c[nH]c5cc(F)ccc45)cc3o2)CC1` [Compound 125, 6-(6-fluoro-1H-indol-3-yl)-2-((1-methylpiperidin-4-yl)methyl)benzo[d]oxazole], the figure is 148 nM; as for `CS(=O)(=O)NC1CCN(CCS(=O)(=O)NCc2nc3ccc(-c4c[nH]c5cc(F)ccc45)cc3o2)CC1` [Compound 126, N-((6-(6-fluoro-1H-indol-3-yl)benzo[d]oxazol-2-yl)methyl)-2-(4-(methylsulfonamido)piperidin-1-yl)ethanesulfonamide], 826 nM.
The same measure for `CS(=O)(=O)NCc1nc2ccc(-c3c[nH]c4cc(Cl)ccc34)cc2o1` [Compound 127, N-((6-(6-chloro-1H-indol-3-yl)benzo[d]oxazol-2-yl)methyl)methanesulfonamide]: 3780 nM.
On to `O=C1NC(=O)C(Cc2nc3ccc(-c4c[nH]c5cc(F)ccc45)cc3o2)N1` (centres unmarked) [Compound 129, 5-((6-(6-fluoro-1H-indol-3-yl)benzo[d]oxazol-2-yl)methyl)imidazolidine-2,4-dione], for which the half-inhibitory concentration (IC50) turned out to be 225 nM.
The compound `NC(=O)Cn1c(=O)oc2cc(-c3c[nH]c4ccc(F)cc34)ccc21` [Compound 131, 2-(6-(5-fluoro-1H-indol-3-yl)-2-oxobenzo[d]oxazol-3(2H)-yl)acetamide] displayed an IC50 of 2380 nM.
As for `O=C1NC(=O)c2cc(-c3c[nH]c4cc(F)ccc34)ccc21` [Compound 132, 5-(6-fluoro-1H-indol-3-yl)isoindoline-1,3-dione], the figure is 197 nM.
As for `Fc1ccc2c(-c3ccc4c(c3)CNC4)c[nH]c2c1` [Compound 133, 6-fluoro-3-(isoindolin-5-yl)-1H-indole], the figure is 292 nM; as for `O=S1(=O)NCc2ccc(-c3c[nH]c4cc(F)ccc34)cc21` [Compound 134], 771 nM; as for `O=S1(=O)NCc2cc(-c3c[nH]c4cc(F)ccc34)ccc21` [Compound 135, 5-(6-fluoro-1H-indol-3-yl)-2,3-dihydrobenzo[d]isothiazole 1,1-dioxide], 74 nM.
The same measure for `O=c1oc2cc(-c3c[nH]c4cc(F)ccc34)ccc2n1C1CCNCC1` [Compound 136, 6-(6-fluoro-1H-indol-3-yl)-3-(piperidin-4-yl)benzo[d]oxazol-2(3H)-one]: 320 nM.
Take `Cc1nc2cc(CO)c(-c3c[nH]c4cc(F)ccc34)cc2o1` [Compound 137, (6-(6-fluoro-1H-indol-3-yl)-2-methylbenzo[d]oxazol-5-yl)methanol]: the IC50 amounted to 30700 nM. This IC50 is about 96-fold higher than that of the compound before.
The same measure for `CN1C(=O)c2cc(-c3c[nH]c4cc(F)ccc34)ccc2S1(=O)=O` [Compound 138, 5-(6-fluoro-H-indol-3-yl)-2-methylbenzo[d]isothiazol-3(2H)-one 1,1-dioxide]: 3680 nM; for `C[C@@H]1CN(CCc2nc3ccc(-c4c[nH]c5cc(F)ccc45)cc3o2)C[C@H](C)N1` [Compound 139, 2-(2-(cis-3,5-dimethylpiperazin-1-yl)ethyl)-6-(6-fluoro-1H-indol-3-yl)benzo[d]oxazole]: 383 nM.
As for `OC1CCN(CCc2nc3ccc(-c4c[nH]c5cc(F)ccc45)cc3o2)CC1` [Compound 140, 1-(2-(6-(6-fluoro-1H-indol-3-yl)benzo[d]oxazol-2-yl)ethyl)piperidin-4-ol], the figure is 447 nM; as for `C[C@@H]1CN(CCc2nc3ccc(-c4c[nH]c5cc(F)ccc45)cc3o2)C[C@@H](C)N1` [Compound 142, (+)-2-(2-((3R,5R)-3,5-dimethylpiperazin-1-yl)ethyl)-6-(6-fluoro-1H-indol-3-yl)benzo[d]oxazole], 480 nM.
As for `Fc1ccc2c(-c3ccc4nc(CCN5CC6(CNC6)C5)oc4c3)c[nH]c2c1` [Compound 143, 2-(2-(2,6-diazaspiro[3.3]heptan-2-yl)ethyl)-6-(6-fluoro-1H-indol-3-yl)benzo[d]oxazole], the figure is 610 nM.
The compound `C[C@H]1CN(CCc2nc3ccc(-c4c[nH]c5cc(F)ccc45)cc3o2)C[C@H](C)N1` [Compound 144, (−)-2-(2-((3S,5S)-3,5-dimethylpiperazin-1-yl)ethyl)-6-(6-fluoro-1H-indol-3-yl)benzo[d]oxazole] registered an IC50 of 460 nM.
As for `O=C(O)C1CN(CCc2nc3ccc(-c4c[nH]c5cc(F)ccc45)cc3o2)CCN1` (centres unmarked) [Compound 145, 4-(2-(6-(6-fluoro-1H-indol-3-yl)benzo[d]oxazol-2-yl)ethyl)piperazine-2-carboxylic acid], the figure is 26000 nM; as for `Fc1ccc2c(-c3ccc4ccoc4c3)c[nH]c2c1` [Compound 146, 3-(benzofuran-6-yl)-6-fluoro-1H-indole], 520 nM.
